Values of other authors as cited in patent publication US10772813B2, “Compositions and methods of administering a colchicine based topical composition for the prevention of radiation fibrosis” (Colradel, LLC, priority 2016, dated 2020).
“Also recorded” adds a separate entry of the source.

Columns and labels:
[1] = system: fibroblasts; conditions: low doses
[2] = system: radiation-induced fibrosis; conditions: single agent, oral
[3] = topical vs high oral doses

COc1cc2c(c(OC)c1OC)-c1ccc(OC)c(=O)cc1[C@@H](NC(C)=O)CC2 [colchicine]
inhibition of fibroblast migration [1]: 93%
side effects [1]: without any side effects
concentration in the skin / dermis (0.2% colchicine ointment compared with 0.5%): same concentration in the dermis 0.5%; also recorded: the same concentration in the skin as 0.5%
side effects (0.2% formulation (0.2 gram in 100 ml), transdermal ointment): no side effects
transdermal absorption (ointment, treatment of gout): well-absorbed transdermally

CC(=O)CCCCn1c(=O)c2c(ncn2C)n(C)c1=O [pentoxifylline, 3,7-dimethyl-1-5-(5-oxohexyl)-xanthine]
improvement in late radiation-induced fibrosis [2]: significant improvement

tocopherol [vitamin E]
concentration achievable by topical administration versus high doses orally [3]: 11 times
